Assay results taken from US20190389850A1, “COMPOUNDS” (GLAXOSMITHKLINE INTELLECTUAL PROPERTY DEVELOPMENT LIMITED, priority 2017, published 2019).
“And” between values parts separate entries of the source, which are not always exact repeats. Equal entries are not always repeated.

biological target: T1, recombinant full length LRRK2 protein (LRRK2 Ser935 phosphorylation) (Homo sapiens, UniProt Q5S007); assay: Recombinant cellular LRRK2 AlphaScreen assay; format: cell-based; settings: SH-SY5Y cells over-expressing recombinant full length LRRK2, 60 minutes, read-out: pIC50 in the recombinant cellular LRRK2 AlphaScreen assay (converted)
T1 construct: A BacMam virus expressing full length recombinant LRRK2 was purchased from Invitrogen; host or cells: SH-SY5Y human neuroblastoma cells transduced with BacMam LRRK2 virus
T1 sequence (Q5S007 whole entry): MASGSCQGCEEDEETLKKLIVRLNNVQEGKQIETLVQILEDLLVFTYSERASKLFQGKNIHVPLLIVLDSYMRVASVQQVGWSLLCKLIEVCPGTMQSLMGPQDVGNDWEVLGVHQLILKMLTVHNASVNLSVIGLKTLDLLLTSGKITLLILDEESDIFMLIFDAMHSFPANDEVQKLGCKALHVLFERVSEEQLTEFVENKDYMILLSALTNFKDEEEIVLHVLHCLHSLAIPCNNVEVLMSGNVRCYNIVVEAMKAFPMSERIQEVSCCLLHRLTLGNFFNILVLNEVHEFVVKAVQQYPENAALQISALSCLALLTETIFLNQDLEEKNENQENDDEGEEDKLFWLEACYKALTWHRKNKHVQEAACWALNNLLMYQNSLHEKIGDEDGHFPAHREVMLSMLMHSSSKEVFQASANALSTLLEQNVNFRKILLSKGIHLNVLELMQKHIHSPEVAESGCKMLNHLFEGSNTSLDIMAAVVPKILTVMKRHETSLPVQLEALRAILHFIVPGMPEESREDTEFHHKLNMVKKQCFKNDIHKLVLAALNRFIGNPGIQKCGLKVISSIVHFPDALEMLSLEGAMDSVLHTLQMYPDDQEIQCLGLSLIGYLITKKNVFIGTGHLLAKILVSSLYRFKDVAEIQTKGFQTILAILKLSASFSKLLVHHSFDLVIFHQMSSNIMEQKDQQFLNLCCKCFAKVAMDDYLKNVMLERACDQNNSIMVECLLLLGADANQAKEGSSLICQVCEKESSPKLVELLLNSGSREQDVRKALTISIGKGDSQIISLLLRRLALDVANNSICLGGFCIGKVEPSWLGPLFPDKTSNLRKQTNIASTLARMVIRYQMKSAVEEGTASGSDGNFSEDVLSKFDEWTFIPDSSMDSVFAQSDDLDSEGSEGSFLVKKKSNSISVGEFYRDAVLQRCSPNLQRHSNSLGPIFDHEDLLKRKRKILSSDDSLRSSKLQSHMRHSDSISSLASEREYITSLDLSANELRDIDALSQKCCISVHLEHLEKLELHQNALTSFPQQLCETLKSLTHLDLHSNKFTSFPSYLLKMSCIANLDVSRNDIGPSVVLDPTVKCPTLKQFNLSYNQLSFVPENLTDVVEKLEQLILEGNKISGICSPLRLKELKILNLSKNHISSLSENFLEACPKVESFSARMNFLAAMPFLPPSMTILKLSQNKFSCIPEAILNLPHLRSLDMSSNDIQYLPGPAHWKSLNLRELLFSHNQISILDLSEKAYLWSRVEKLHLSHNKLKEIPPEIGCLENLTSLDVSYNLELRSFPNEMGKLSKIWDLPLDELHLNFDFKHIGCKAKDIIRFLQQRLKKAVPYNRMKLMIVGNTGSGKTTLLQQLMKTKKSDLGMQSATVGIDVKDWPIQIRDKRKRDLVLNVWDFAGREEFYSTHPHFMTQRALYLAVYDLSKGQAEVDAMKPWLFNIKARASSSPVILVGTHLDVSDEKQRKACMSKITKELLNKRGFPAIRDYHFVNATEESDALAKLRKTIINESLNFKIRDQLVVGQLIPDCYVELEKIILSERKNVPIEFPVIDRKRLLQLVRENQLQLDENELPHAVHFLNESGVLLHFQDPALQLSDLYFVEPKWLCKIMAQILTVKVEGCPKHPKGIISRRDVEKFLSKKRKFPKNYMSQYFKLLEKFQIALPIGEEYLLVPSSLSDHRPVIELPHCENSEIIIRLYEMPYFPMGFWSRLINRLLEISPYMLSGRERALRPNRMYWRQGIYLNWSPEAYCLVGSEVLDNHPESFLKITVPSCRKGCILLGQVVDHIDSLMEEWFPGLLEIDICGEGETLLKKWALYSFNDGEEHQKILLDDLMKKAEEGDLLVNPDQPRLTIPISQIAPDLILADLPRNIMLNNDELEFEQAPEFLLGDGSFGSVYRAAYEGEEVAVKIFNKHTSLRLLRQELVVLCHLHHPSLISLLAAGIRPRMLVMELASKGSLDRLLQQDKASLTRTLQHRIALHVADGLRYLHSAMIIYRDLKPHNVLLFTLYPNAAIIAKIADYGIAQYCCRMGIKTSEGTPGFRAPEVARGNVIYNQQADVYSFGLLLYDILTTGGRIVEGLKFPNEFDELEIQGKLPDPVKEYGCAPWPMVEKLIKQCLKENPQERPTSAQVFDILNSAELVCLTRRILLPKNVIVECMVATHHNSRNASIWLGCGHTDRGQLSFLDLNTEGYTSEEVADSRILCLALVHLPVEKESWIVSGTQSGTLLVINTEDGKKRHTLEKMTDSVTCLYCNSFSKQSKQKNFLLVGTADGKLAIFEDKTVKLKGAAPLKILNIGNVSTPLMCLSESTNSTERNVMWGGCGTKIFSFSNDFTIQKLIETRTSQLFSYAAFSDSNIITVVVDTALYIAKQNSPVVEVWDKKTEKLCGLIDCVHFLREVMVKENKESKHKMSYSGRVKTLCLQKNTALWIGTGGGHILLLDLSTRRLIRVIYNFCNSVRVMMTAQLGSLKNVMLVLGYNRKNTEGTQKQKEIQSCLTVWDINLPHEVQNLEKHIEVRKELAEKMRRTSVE
From the text: b. Recombinant Cellular LRRK2 AlphaScreen Assay
To determine the activity of compounds against LRRK2 kinase activity in cells, the observed LRRK2 kinase-dependent modulation of LRRK2 Ser 935 phosphorylation (Dzamko et al., 2010, Biochem. J. 430: 405-413) was utilized to develop a quantitative 384 well plate-based immunoassay of LRRK2 Ser935 phosphorylation in the human neuroblastoma cell line SH-SY5Y, engineered to over-express recombinant full length LRRK2 protein.
A BacMam virus expressing full length recombinant LRRK2 was purchased from Invitrogen and amplified by inoculation of SF-9 cells at MOI 0.3 for 4-5 days in Sf-900 III SFM medium supplemented with 3% fetal bovine serum. Infected cell cultures were then centrifuged at 2000 g for 20 minutes, viral supernatant titer determined by anti-gp64 plaque assay and stored at 4° C.
Affinity-purified anti-phospho LRRK2 Ser935 sheep polyclonal antibody (Dzamko et al., 2010, Biochem. J. 430: 405-413) was biotinylated by standard methods (PerkinElmer). Anti-LRRK2 rabbit polyclonal antibody was purchased from Novus Biologicals. AlphaScreen Protein A IgG Kit (including acceptor and donor beads) was purchased from Perkin Elmer.
SH-SY5Y cells were grown in DMEM/F12 medium with 10% dialysed fetal bovine serum and harvested by treatment with 0.5% trypsin-EDTA for 5 minutes at 37° C. followed by centrifugation at 1000 rpm for 4 minutes. The cell pellet was resuspended in Opti-MEM reduced serum media (Invitrogen) at 200,000 cells/ml and mixed with the BacMam LRRK2 virus at MOI=50. 50 μl cell solutions were then dispensed to each well of a 384-well plate and incubated at 37° C., 5% CO2 for 24 hours.
Serial dilutions of test compounds were prepared in Opti-MEM reduced serum media (Invitrogen) and 5.6 ul transferred from compound plate to cell assay plate to achieve a top final assay concentration of 10 uM. DMSO was used in certain wells as controls. Cells were incubated at 37° C., 5% CO2 for 60 minutes. The medium was then removed and cells lysed by addition of 20 ul cell lysis buffer (Cell Signaling Technology) and incubation at 4° C. for 20 minutes. 10 ul of antibody/acceptor bead mix [(1/1000 biotinylated-pS935 LRRK2 antibody, 1/1000 total-LRRK2 antibody, 1/100 Acceptor beads in AlphaScreen detection buffer (25 mM Hepes (pH 7.4), 0.5% Triton X-100, 1 mg/ml Dextran 500 and 0.1% BSA)] was then added to each well and plates incubated for 2 hours at ambient temperature in the dark. 10 μl of donor beads solution (1/33.3 donor beads in AlphaScreen detection buffer) was then added to each well. Following incubation for a further 2 hours at ambient temperature in the dark, plates were read on an EnVision™ plate reader at emission 520-620 nm with excitation 680 nm. Dose response curve data was based on sigmoidal dose-response model.

Row | IC50 | Compound
1 | 200 nM | Cc1nc(N2CCO[C@@H](CO)C2)cc(-n2ncc3cc(C)c(C4CCN(C5(C)COC5)CC4)cc32)n1 [Example A-1, (R)-(4-(2-Methyl-6-(5-methyl-6-(1-(3-methyloxetan-3-yl)piperidin-4-yl)-1H-indazol-1-yl)pyrimidin-4-yl)morpholin-2-yl)methanol]
2 | ≤ 31.6 nM and 12.6 nM | COc1nc(N2CCO[C@H](CO)C2)cc(-n2ncc3cc(C)c(C4CCN(C5(C)COC5)CC4)cc32)n1 [Example A-3, (S)-(4-(2-Methoxy-6-(5-methyl-6-(1-(3-methyloxetan-3-yl)piperidin-4-yl)-1H-indazol-1-yl)pyrimidin-4-yl)morpholin-2-yl)methanol]
3 | 79.4 nM | Cc1nc(N2CC(C)OC(CO)C2)cc(-n2ncc3cc(C)c(C4CCN(C5COC5)CC4)cc32)n1 (single isomer, unassigned) [Example B-2, (6-Methyl-4-(2-methyl-6-(5-methyl-6-(1-(oxetan-3-yl)piperidin-4-yl)-1H-indazol-1-yl)pyrimidin-4-yl)morpholin-2-yl)methanol]
4 | 63.1 nM | Cc1nc(N2CC(CO)OCC2C)cc(-n2ncc3cc(C)c(C4CCN(C5COC5)CC4)cc32)n1 (single isomer, unassigned) [Example B-6, (5-methyl-4-(2-methyl-6-(5-methyl-6-(1-(oxetan-3-yl)piperidin-4-yl)-1H-indazol-1-yl)pyrimidin-4-yl)morpholin-2-yl)methanol]
5 | 100 nM | Cc1nc(N2CCOC(CCO)C2)cc(-n2ncc3cc(C)c(C4CCN(C5COC5)CC4)cc32)n1 (single isomer, unassigned) [Example B-8, 2-(4-(2-methyl-6-(5-methyl-6-(1-(oxetan-3-yl)piperidin-4-yl)-1H-indazol-1-yl)pyrimidin-4-yl)morpholin-2-yl)ethanol]
6 | 50.1 nM | Cc1nc(N2CC(C)OC(CO)C2)cc(-n2ncc3cc(C)c(C4CCN(C5COC5)CC4)cc32)n1 (single isomer, unassigned) [Example B-1, (6-Methyl-4-(2-methyl-6-(5-methyl-6-(1-(oxetan-3-yl)piperidin-4-yl)-1H-indazol-1-yl)pyrimidin-4-yl)morpholin-2-yl)methanol]
7 | 50.1 nM | Cc1nc(N2CC(C)OC(CO)C2)cc(-n2ncc3cc(C)c(C4CCN(C5COC5)CC4)cc32)n1 (single isomer, unassigned) [Example B-3, (6-Methyl-4-(2-methyl-6-(5-methyl-6-(1-(oxetan-3-yl)piperidin-4-yl)-1H-indazol-1-yl)pyrimidin-4-yl)morpholin-2-yl)methanol]
8 | ≤ 31.6 nM | COc1nc(N2CCO[C@@H](CO)C2)cc(-n2ncc3cc(C)c(C4CCN(C5(C)COC5)CC4)cc32)n1 [Example A-4, (R)-(4-(2-Methoxy-6-(5-methyl-6-(l-(3-methyloxetan-3-yl)piperidin-4-yl)-1H-indazol-1-yl)pyrimidin-4-yl)morpholin-2-yl)methanol]
9 | 79.4 nM | Cc1nc(N2CCOC(CCO)C2)cc(-n2ncc3cc(C)c(C4CCN(C5COC5)CC4)cc32)n1 (single isomer, unassigned) [Example B-7, 2-(4-(2-methyl-6-(5-methyl-6-(1-(oxetan-3-yl)piperidin-4-yl)-1H-indazol-1-yl)pyrimidin-4-yl)morpholin-2-yl)ethanol]
10 | 316 nM | Cc1nc(N2CC(C)OC(CO)C2)cc(-n2ncc3cc(C)c(C4CCN(C5COC5)CC4)cc32)n1 (single isomer, unassigned) [Example B-4, (6-Methyl-4-(2-methyl-6-(5-methyl-6-(1-(oxetan-3-yl)piperidin-4-yl)-1H-indazol-1-yl)pyrimidin-4-yl)morpholin-2-yl)methanol]

biological target: T2, Full length G2019 human LRRK2 (Homo sapiens, UniProt Q5S007); assay: Full length G2019 human LRRK2 Inhibition Mass Spectrometry assay; format: biochemical; settings: LRRKtide to phospho-LRRKtide conversion, RapidFire mass spectrometry; 25 nM LRRK2, 2 mM ATP; read-out: pIC50 in the full length G2019 human LRRK2 Inhibition Mass Spectrometry assay (converted)
T2 construct: purified recombinant Full length Flag-LRRK2; made in house; host or cells: HEK293 6E cells transduced with BacMam virus (virus made in Sf9)
T2 sequence (Q5S007 with tags, fused parts or gaps R50H): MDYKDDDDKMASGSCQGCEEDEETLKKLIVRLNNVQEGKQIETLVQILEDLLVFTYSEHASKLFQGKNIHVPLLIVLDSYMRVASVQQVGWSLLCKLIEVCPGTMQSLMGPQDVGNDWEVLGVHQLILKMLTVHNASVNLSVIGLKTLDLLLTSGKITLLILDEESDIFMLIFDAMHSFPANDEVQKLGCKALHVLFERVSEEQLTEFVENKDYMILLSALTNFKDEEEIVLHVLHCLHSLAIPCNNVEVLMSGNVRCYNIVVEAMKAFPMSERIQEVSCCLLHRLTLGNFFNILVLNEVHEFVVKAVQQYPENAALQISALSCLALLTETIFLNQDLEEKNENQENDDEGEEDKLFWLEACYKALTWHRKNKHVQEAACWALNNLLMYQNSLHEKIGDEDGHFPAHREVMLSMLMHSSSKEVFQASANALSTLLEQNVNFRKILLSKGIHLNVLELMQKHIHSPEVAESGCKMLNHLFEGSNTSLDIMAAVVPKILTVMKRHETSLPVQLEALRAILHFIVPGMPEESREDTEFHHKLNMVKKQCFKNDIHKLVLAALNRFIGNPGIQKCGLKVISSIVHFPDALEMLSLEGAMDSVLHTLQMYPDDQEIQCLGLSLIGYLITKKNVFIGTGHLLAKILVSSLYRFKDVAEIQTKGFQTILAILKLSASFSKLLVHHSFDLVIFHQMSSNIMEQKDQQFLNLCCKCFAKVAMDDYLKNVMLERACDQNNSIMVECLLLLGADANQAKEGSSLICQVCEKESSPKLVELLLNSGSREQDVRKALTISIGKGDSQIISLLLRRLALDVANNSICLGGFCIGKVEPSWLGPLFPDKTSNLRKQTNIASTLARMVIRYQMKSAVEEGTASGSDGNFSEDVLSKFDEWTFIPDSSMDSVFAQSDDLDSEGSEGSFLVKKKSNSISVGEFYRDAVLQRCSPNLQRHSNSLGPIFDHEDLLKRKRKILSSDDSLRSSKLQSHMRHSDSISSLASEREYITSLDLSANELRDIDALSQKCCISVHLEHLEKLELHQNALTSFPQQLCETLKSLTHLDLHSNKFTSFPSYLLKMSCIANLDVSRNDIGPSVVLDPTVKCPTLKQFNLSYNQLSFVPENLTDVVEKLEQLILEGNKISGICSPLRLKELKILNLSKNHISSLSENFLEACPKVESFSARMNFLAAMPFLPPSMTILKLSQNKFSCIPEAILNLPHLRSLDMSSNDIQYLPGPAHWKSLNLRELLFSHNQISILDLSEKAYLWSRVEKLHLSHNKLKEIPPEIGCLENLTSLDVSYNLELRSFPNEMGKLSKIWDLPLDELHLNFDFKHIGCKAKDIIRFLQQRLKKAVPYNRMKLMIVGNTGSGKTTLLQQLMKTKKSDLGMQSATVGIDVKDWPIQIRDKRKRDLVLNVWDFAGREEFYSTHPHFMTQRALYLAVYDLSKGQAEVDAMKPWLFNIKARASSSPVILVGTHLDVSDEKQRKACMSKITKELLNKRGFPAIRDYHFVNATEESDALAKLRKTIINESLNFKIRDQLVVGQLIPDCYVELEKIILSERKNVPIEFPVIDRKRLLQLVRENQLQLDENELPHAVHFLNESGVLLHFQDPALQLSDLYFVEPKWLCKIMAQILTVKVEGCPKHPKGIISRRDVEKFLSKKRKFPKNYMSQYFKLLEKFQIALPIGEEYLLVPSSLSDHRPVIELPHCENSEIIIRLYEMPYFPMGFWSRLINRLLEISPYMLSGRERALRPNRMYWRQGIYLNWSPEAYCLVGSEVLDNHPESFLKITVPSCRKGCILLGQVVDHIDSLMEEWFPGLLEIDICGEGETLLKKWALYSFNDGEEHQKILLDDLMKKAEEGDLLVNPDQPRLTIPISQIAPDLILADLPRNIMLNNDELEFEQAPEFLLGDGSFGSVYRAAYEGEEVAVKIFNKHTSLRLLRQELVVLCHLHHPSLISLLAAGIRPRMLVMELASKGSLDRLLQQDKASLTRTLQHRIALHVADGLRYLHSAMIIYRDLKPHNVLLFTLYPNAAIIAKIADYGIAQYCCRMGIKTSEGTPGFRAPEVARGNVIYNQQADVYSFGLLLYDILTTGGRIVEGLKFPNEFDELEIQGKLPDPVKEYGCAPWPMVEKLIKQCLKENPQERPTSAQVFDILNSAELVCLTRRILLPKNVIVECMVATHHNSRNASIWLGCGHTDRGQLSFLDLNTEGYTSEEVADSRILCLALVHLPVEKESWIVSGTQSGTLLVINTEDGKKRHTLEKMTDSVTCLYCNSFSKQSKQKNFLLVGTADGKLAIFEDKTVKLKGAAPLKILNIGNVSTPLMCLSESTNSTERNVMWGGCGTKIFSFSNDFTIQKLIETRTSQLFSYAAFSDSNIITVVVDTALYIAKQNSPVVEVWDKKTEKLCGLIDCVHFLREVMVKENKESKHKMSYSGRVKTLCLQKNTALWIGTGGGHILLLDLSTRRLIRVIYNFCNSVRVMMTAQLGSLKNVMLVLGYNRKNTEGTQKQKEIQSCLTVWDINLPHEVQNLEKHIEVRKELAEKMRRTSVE
Description: a. Full Length G2019 Human LRRK2 Inhibition Mass Spectrometry Assay
This assay for Leucine Rich Repeat Kinase 2 (LRRK2) inhibition is based on the direct measurement of the peptide ‘LRRKtide’ (LRRKtide: RLGRDKYKT*LRQIRQ and “*” refers to the site of phosphorylation.) and phosphorylated ‘LRRKtide’ using a high throughput RapidFire mass spectrometry assay. Inhibitors are compounds that reduce the conversion of LRRKtide to phospho-LRRKtide.
• 1) A 10 mM test compound was dissolved in 100% DMSO and serially diluted 1 in 4. 100 nL of this dilution series was then added to a 384 well, v bottom polypropylene plate, excluding columns 6 and 18. 100 nL of DMSO was added to columns 6 and 18 as controls wells. […] Test plates were then analysed on an Agilent RapidFire High Throughput solid phase extraction system coupled to AB Sciex API 4000 triple quadropole mass spectrometer with the following setting: RapidFire settings: • Sip Height=2 mm, Aspirate=500 ms, Load time=3000 ms, Elution time=3000 ms, Requilibration=500 ms. • Flow rates: pump 1=1.5 mL/min, pump 2 1.25 mL/min pump 3=0.8 mL/min Mass Spectrometer Settings: • LRRKtide Detection settings: Q1 mass 644.8 Da, Q3 mass 638.8, declustering potential 76 volts, collision energy 37 volts, CXP 34 volts. • Phospho-LRRKtide Detection settings: Q1 mass 671.4 Da, Q3 mass 638.8, Declustering potential 76 volts, Collision energy 37 volts, CXP 34 volts. • A C4 cartridge was used and running buffers were: A (aqueous) 0.1% formic acid in water B (organic) 0.1% formic acid, 80% acetonitrile, 20% water. • Collision gas: 12, Curtain gas: 25, Ion Source gas (1): 60, Ion Source gas (2): 60, Ion Spray Voltage: 5500, Temperature: 600, Interface Heater: ON. • Resolution Q1: low, Resolution Q3: low. • 6) Data was analysed using ActivityBase software (IDBS). A percent conversion from LRRKtide to Phospho-LRRKtide was calculated using the following formula: […]

Row | IC50 [nM] | Compound
11 | ≤ 100 | Cc1nc(N2CCO[C@@H](CO)C2)cc(-n2ncc3cc(C)c(C4CCN(C5(C)COC5)CC4)cc32)n1 [Example A-1, (R)-(4-(2-Methyl-6-(5-methyl-6-(1-(3-methyloxetan-3-yl)piperidin-4-yl)-1H-indazol-1-yl)pyrimidin-4-yl)morpholin-2-yl)methanol]
12 | ≤ 100 | Cc1nc(N2CCO[C@H](CO)C2)cc(-n2ncc3cc(C)c(C4CCN(C5(C)COC5)CC4)cc32)n1 [Example A-2, (S)-(4-(2-Methyl-6-(5-methyl-6-(1-(3-methyloxetan-3-yl)piperidin-4-yl)-1H-indazol-1-yl)pyrimidin-4-yl)morpholin-2-yl)methanol]
13 | ≤ 100 | Cc1nc(N2CCOC(CCO)C2)cc(-n2ncc3cc(C)c(C4CCN(C5COC5)CC4)cc32)n1 (single isomer, unassigned) [Example B-7, 2-(4-(2-methyl-6-(5-methyl-6-(1-(oxetan-3-yl)piperidin-4-yl)-1H-indazol-1-yl)pyrimidin-4-yl)morpholin-2-yl)ethanol]
